Entries after “also recorded” stand apart in the source; their conditions may differ.
Columns and labels:
[1] = tested on: PKA present in 2 μg lysate; experiment: Multiplexed lysate assay: PKA phosphorylation of Chromeo642-labeled LRRASLG; type: biochemical, mouse; conditions: 3 μM substrate, FIG. 24B
Source text: (§1) In the presence of cAMP, PKA activity is stimulated resulting in phosphorylation of labeled kemptide substrate and an increase in the delta RFU of the kemptide (right axis). PDE4A 1A hydrolyzes c-AMP to AMP resulting in an increase in the delta RFU (left axis). In the presence of the PDE inhibitor IBMX, hydrolysis of cAMP is inhibited resulting in hight concentrations of cAMP and higher PKA activities. FIG. 24B is a line graph of the change in relative fluorescence units (delta RFU) in fluorescien-labelled cAMP (1.5 μM, left axis) and Chromeo642-labeled LRRASLG (3 μM, right axis) caused by PKA present in 2 μg lysate in the presence of varying amounts of the non-selective PDE inhibitor IBMX.
(§2) Multiplexing can be accomplished using electron transfer quenching with zirconyl chloride sensor and 2 μM fluorescein labeled cAMP simultaneously with 2 μM TAMRA labeled cGMP in various concentration of mouse brain lysate.
(§3) The assay platform can be used to monitor activities of enzymes of various classes, and thus is a novel tool to connect different braches of signaling. As outlined in the schematic FIG. 24A, a phsphodiesterase-mediated cleavage of cAMP is inhibited by IBMX. As a result, increasing amounts of cAMP can bind to the regulatory domain of its downstream target, PKA. Upon binding, the regulatory subunits disassociate from the catalytic subunit and PKA becomes catalytically active.

[2] = target: recombinant PDE41A1A (Homo sapiens, UniProt P27815); experiment: PDE biochemical inhibition assay with fluorescein-labeled cAMP and zirconyl chloride sensor; conditions: endpoint mode, PDE4A1A 3 nM, 2 μM fluorescein-labeled cAMP, 100 μM sensor, FIG. 21A
recombinant PDE41A1A, sequence (P27815 1-647 isoform P27815-4): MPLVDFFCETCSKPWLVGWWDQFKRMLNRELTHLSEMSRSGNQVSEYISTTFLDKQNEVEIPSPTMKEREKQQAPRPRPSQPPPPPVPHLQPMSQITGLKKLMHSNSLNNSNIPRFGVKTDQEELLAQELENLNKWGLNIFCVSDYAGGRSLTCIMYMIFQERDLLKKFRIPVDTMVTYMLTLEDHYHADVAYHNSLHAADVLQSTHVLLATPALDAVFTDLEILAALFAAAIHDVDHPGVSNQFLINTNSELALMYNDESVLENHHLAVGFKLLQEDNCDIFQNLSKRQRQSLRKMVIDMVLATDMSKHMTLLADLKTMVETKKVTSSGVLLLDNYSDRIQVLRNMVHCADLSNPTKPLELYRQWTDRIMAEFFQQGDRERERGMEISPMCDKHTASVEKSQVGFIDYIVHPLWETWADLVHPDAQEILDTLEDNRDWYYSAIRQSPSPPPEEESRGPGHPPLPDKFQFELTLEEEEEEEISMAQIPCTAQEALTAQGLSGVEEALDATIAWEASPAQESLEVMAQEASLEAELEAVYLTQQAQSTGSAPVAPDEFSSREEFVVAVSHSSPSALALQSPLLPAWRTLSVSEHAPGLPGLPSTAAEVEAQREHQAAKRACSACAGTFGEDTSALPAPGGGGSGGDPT
Description: Assays were conducted with fluorescein-labeled cAMP at 2 μM and sensor (zirconyl chloride) at 100 μM.
For biochemical assays, 2 μM fluorescein labeled cAMP was added to various concentrations of recombinant PDE4AIA and zirconyl chloride sensor was added (100 μM) following 1 hour of incubation at room temperature (FIG. 19A). […] Reactions were terminated by addition of 100 μM Zirconyl sensor. […] Reactions were terminated by addition of 100 μM Zirconyl sensor.

[3] = tested on: phosphodiesterase; experiment: Multiplexed lysate assay: phosphodiesterase mediated cleavage of fluorescein-labeled cAMP; type: biochemical, mouse; conditions: 2 μg lysate, 1.5 μM cAMP substrate, FIG. 24B
Source text: as §1, §2, §3

Structure (SMILES): CC(C)Cn1c(=O)n(C)c(=O)c2[nH]cnc21 [IBMX]
- PKA activity (delta RFU of Chromeo642-labeled LRRASLG) as a function of inhibitor concentration [1]: increasing phosphorylation of the PKA substrate Chromeo-GLRRASLG; also recorded: PKA activity increases with increasing amount of IBMX
- Inhibition values [2]: closely matched literature values
- PDE activity (delta RFU of fluorescein-labeled cAMP) as a function of inhibitor concentration [3]: decreasing activity of phosphodiesterase mediated cleavage of cAMP; also recorded: PDE activity decreased with increasing amounts of IBMX
